Common to all, as to type: functional
Assay [1] deals with Candida albicans. As to the kind of experiment: Antimicrobial activity against caspofungin-resistant Candida albicans CAI4R1 expressing heterozygous […] mutant gene by CLSI M27-A3 broth microdilution method.
Assay [2] has as its system Candida albicans. The assay can be described thus: Antimicrobial activity against caspofungin-resistant Candida albicans CAI4 by CLSI M27-A3 broth microdilution method. (In general: Broth dilution looks for growth in wells or tubes with falling amounts of substance.)
Assay [3] relates to Candida albicans. The assay can be described thus: Antimicrobial activity against caspofungin-resistant Candida albicans NR3 expressing homozygous […] mutant gene by CLSI M27-A3 broth microdilution method.
Assay [4] relates to Pichia kudriavzevii. As to the kind of experiment: Antimicrobial activity against caspofungin-susceptible Issatchenkia orientalis CY-118 CLSI by M27-A3 broth microdilution method.
Assay [5] concerns Candida albicans. As to the kind of experiment: Antimicrobial activity against caspofungin-resistant Candida albicans NR4 expressing heterozygous […] mutant gene by CLSI M27-A3 broth microdilution method.
Assay [6] concerns Candida albicans. As to the kind of experiment: Antimicrobial activity against caspofungin-resistant Candida albicans NR2 expressing heterozygous […] mutant gene by CLSI M27-A3 broth microdilution method.
In assay [7] the test system is Candida albicans. As to the kind of experiment: Antimicrobial activity against caspofungin-resistant Candida albicans T25 by CLSI M27-A3 broth microdilution method.
Assay [8] concerns Candida albicans. As to the kind of experiment: Antimicrobial activity against caspofungin-resistant Candida albicans T26 by CLSI M27-A3 broth microdilution method.
In assay [9] the test system is Candida albicans. The assay can be described thus: Antimicrobial activity against caspofungin-resistant Candida albicans T32 by CLSI M27-A3 broth microdilution method.
For assay [10], the system named is Clavispora lusitaniae. As to the kind of experiment: Antimicrobial activity against Clavispora lusitaniae ATCC 42720 after 24 hrs by Etest. The conditions noted are these: ATCC 42720, 24 h.
Assay [11] has as its system Meyerozyma guilliermondii. The assay can be described thus: Antimicrobial activity against Pichia guilliermondii ATCC 6260 after 24 hrs by Etest. Conditions: ATCC 6260, 24 h.
Assay [12] deals with Debaryomyces hansenii. As to the kind of experiment: Antimicrobial activity against Candida famata after 24 hrs by Etest.
For assay [13], the system named is Candida albicans. As to the kind of experiment: Antimicrobial activity against caspofungin-resistant Candida albicans NR4 expressing heterozygous […] mutant gene by Etest.
Assay [14] concerns Candida albicans. As to the kind of experiment: Antimicrobial activity against caspofungin-resistant Candida albicans NR2 expressing heterozygous […] mutant gene by Etest.
For assay [15], the system named is Candida albicans. The assay can be described thus: Antimicrobial activity against caspofungin-resistant Candida albicans T32 by Etest.
The test system of assay [16] is Debaryomyces hansenii. As to the kind of experiment: Antimicrobial activity against Candida famata after 24 hrs by CLSI M27-A3 broth microdilution method.
Assay [17] has as its system Pichia kudriavzevii. The assay can be described thus: Antimicrobial activity against Issatchenkia orientalis after 24 hrs by CLSI M27-A3 broth microdilution method.
Assay [18] relates to Candida parapsilosis. The assay can be described thus: Antimicrobial activity against Candida parapsilosis after 24 hrs by CLSI M27-A3 broth microdilution method. The conditions noted are these: Lodderomyces parapsilosis.
The test system of assay [19] is Candida tropicalis. The assay can be described thus: Antimicrobial activity against Candida tropicalis after 24 hrs by Etest.
The subject of assay [20] is Nakaseomyces glabratus. As to the kind of experiment: Antimicrobial activity against Candida glabrata after 24 hrs by CLSI M27-A3 broth microdilution method.
For assay [21], the system named is Meyerozyma guilliermondii. As to the kind of experiment: Antimicrobial activity against Pichia guilliermondii ATCC 6260 after 24 hrs by CLSI M27-A3 broth microdilution method. The conditions noted are these: ATCC 6260, 24 h.
For assay [22], the system named is Nakaseomyces glabratus. As to the kind of experiment: Antimicrobial activity against Candida glabrata after 24 hrs by Etest.
The test system of assay [23] is Clavispora lusitaniae. The assay can be described thus: Antimicrobial activity against Clavispora lusitaniae ATCC 42720 after 24 hrs by CLSI M27-A3 broth microdilution method. The conditions noted are these: ATCC 42720, 24 h.
For assay [24], the system named is Candida albicans. As to the kind of experiment: Antimicrobial activity against Candida albicans after 24 hrs by Etest.
Assay [25] concerns Candida tropicalis. The assay can be described thus: Antimicrobial activity against Candida tropicalis after 24 hrs by CLSI M27-A3 broth microdilution method.
Assay [26] relates to Pichia kudriavzevii. The assay can be described thus: Antimicrobial activity against caspofungin-susceptible Candida krusei CY-118 by Etest.
The subject of assay [27] is Candida albicans. The assay can be described thus: Antimicrobial activity against caspofungin-resistant Candida albicans T26 by Etest.
Assay [28] deals with Pichia kudriavzevii. The assay can be described thus: Antimicrobial activity against Issatchenkia orientalis after 24 hrs by Etest.
Assay [29] deals with Candida albicans. As to the kind of experiment: Antimicrobial activity against caspofungin-resistant Candida albicans NR3 expressing homozygous […] mutant gene by Etest.
Assay [30] has as its system Candida albicans. The assay can be described thus: Antimicrobial activity against caspofungin-resistant Candida albicans CAI4 by Etest.
In assay [31] the test system is Candida albicans. As to the kind of experiment: Antimicrobial activity against Candida albicans after 24 hrs CLSI M27-A3 broth microdilution method.
In assay [32] the test system is Candida albicans. As to the kind of experiment: Antimicrobial activity against caspofungin-resistant Candida albicans T25 by Etest.
For assay [33], the system named is Candida parapsilosis. As to the kind of experiment: Antimicrobial activity against Candida parapsilosis after 24 hrs by Etest. Conditions: Lodderomyces parapsilosis.
Assay [34] has as its system Candida albicans. As to the kind of experiment: Antimicrobial activity against caspofungin-resistant Candida albicans CAI4R1 expressing heterozygous […] mutant gene by Etest.

Structures are written as SMILES. Converted amounts (≈) assume the structure as drawn. *1 amine or outer side, *2 acyl side, *3 side chain or, on linkers, in order; H or OH if unused. Where a SMILES comes first, the peptide text is derived from it. Bridges are numbered along the chain shown (N, C = ends). [ ]: non-standard residue; d: D form. The star is where a group is joined. hTyr(3S-OH,4S-OH,3'-OSO3H) = N[C@H](C(=O)O)[C@H](O)[C@@H](O)c1ccc(O)c(OS(=O)(=O)O)c1; pTerphenylCO(4''-OnC5H11) = CCCCCOc1ccc(-c2ccc(-c3ccc(C(=O)*)cc3)cc2)cc1; Orn(4R-OH,5R-OH) = O=C([C@H](C[C@@H](O)[C@@H](O)N[*:3])N[*:1])[*:2]; hTyr(3S-OH,4S-OH) = N[C@H](C(=O)O)[C@H](O)[C@@H](O)c1ccc(O)cc1; Pro(3S-OH,4S-Me) = C[C@H]1CN[C@H](C(=O)O)[C@H]1O; X1 = CCCCCOc1ccc(-c2cc(-c3ccc(C(=O)*)cc3)no2)cc1; Gln(3R-OH) = NC(=O)C[C@@H](O)[C@H](N)C(=O)O; Hyp = O=C(O)[C@@H]1C[C@@H](O)CN1

As to `CC[C@H](C)C[C@H](C)CCCCCCCCC(=O)N[C@H]1C[C@@H](O)[C@@H](NCCN)NC(=O)[C@@H]2[C@@H](O)CCN2C(=O)[C@H]([C@H](O)CCN)NC(=O)[C@H]([C@H](O)[C@@H](O)c2ccc(O)cc2)NC(=O)[C@@H]2C[C@@H](O)CN2C(=O)[C@H]([C@@H](C)O)NC1=O` [CASPOFUNGIN], the MIC was 4 µg/mL (≈ 3.66 µM) in the assay on Candida albicans [1]; not above 0.032 µg/mL against Candida albicans [2]; 8 µg/mL (≈ 7.32 µM) with Candida albicans [3]; 4 µg/mL (≈ 3.66 µM) in the assay with Pichia kudriavzevii [4]; 2 µg/mL (≈ 1.83 µM) against Candida albicans [5]; 4 µg/mL (≈ 3.66 µM) with Candida albicans [6]. In addition, the minimal inhibitory concentration (MIC) is 8 µg/mL (≈ 7.32 µM) with Candida albicans [7], 8 µg/mL (≈ 7.32 µM) in the assay with Candida albicans [8] and 0.25 µg/mL (≈ 0.229 µM) in the assay with Candida albicans [9].
Turning to `CCCCCOc1ccc(-c2ccc(-c3ccc(C(=O)N[C@H]4C[C@@H](O)[C@@H](O)NC(=O)[C@@H]5[C@@H](O)[C@@H](C)CN5C(=O)[C@H]([C@@H](C)O)NC(=O)[C@H]([C@H](O)[C@@H](O)c5ccc(O)cc5)NC(=O)[C@@H]5C[C@@H](O)CN5C(=O)[C@H]([C@@H](C)O)NC4=O)cc3)cc2)cc1` [ANIDULAFUNGIN] ({pTerphenylCO(4''-OnC5H11)}-[Orn(4R-OH,5R-OH)]T[Hyp][hTyr(3S-OH,4S-OH)]T[Pro(3S-OH,4S-Me)]; lactam 1-C), the MIC is 0.06 µg/mL (≈ 0.0526 µM) against Clavispora lusitaniae [10]; 0.06 µg/mL (≈ 0.0526 µM) with Debaryomyces hansenii [12]; 0.5 µg/mL (≈ 0.438 µM) with Candida albicans [13]; 0.5 µg/mL (≈ 0.438 µM) in the assay on Candida albicans [1]; 1 µg/mL (≈ 0.877 µM) with Candida albicans [14]; not above 0.032 µg/mL in the assay on Candida albicans [15]. Moreover, the MIC was not above 0.032 µg/mL against Candida albicans [2]; 0.03 µg/mL (≈ 0.0263 µM) in the assay with Debaryomyces hansenii [16]; not above 0.016 µg/mL in the assay with Candida tropicalis [19]; 1 µg/mL (≈ 0.877 µM) against Candida albicans [3]; 0.5 µg/mL (≈ 0.438 µM) against Pichia kudriavzevii [4]; 0.25 µg/mL (≈ 0.219 µM) against Candida albicans [5]. Moreover, the MIC is 0.03 µg/mL (≈ 0.0263 µM) with Clavispora lusitaniae [23]; 0.12 µg/mL (≈ 0.105 µM) in the assay with Candida albicans [6]; not above 0.016 µg/mL against Candida tropicalis [25]; not above 0.032 µg/mL against Pichia kudriavzevii [26]; 0.5 µg/mL (≈ 0.438 µM) with Candida albicans [27]; 1 µg/mL (≈ 0.877 µM) with Candida albicans [7]. Besides, the MIC in the assay with Candida albicans [29] was 32 µg/mL (≈ 28.1 µM); against Candida albicans [30], not above 0.032 µg/mL; in the assay with Candida albicans [8], 1 µg/mL (≈ 0.877 µM); against Candida albicans [32], 2 µg/mL (≈ 1.75 µM); in the assay on Candida albicans [9], 0.032 µg/mL (≈ 0.0281 µM); against Candida albicans [34], 2 µg/mL (≈ 1.75 µM). For the same compound, the MIC50 with Clavispora lusitaniae [10] was 0.06 µg/mL (≈ 0.0526 µM); in assay [11] it was 1 µg/mL (≈ 0.877 µM); against Debaryomyces hansenii [12], 0.06 µg/mL (≈ 0.0526 µM); in the assay on Debaryomyces hansenii [16], 0.03 µg/mL (≈ 0.0263 µM); in the assay with Pichia kudriavzevii [17] it was 0.03 µg/mL (≈ 0.0263 µM); against Candida parapsilosis [18] it was 0.5 µg/mL (≈ 0.438 µM). For the same compound, the MIC50 against Nakaseomyces glabratus [20] came out at 0.03 µg/mL (≈ 0.0263 µM); in [21] it was 1 µg/mL (≈ 0.877 µM); in the assay on Nakaseomyces glabratus [22], 0.016 µg/mL (≈ 0.014 µM); in the assay with Clavispora lusitaniae [23], 0.03 µg/mL (≈ 0.0263 µM); against Candida albicans [24], 0.016 µg/mL (≈ 0.014 µM); against Pichia kudriavzevii [28], 0.03 µg/mL (≈ 0.0263 µM). Moreover, the MIC50 in the assay on Candida albicans [31] was found to be 0.016 µg/mL (≈ 0.014 µM); with Candida parapsilosis [33], 2 µg/mL (≈ 1.75 µM). For the same compound, the MIC90 in [11] stood at 8 µg/mL (≈ 7.02 µM); with Pichia kudriavzevii [17], 0.12 µg/mL (≈ 0.105 µM); against Candida parapsilosis [18], 4 µg/mL (≈ 3.51 µM); in the assay with Nakaseomyces glabratus [20], 0.12 µg/mL (≈ 0.105 µM); in [21] it was 1 µg/mL (≈ 0.877 µM); with Nakaseomyces glabratus [22], 0.016 µg/mL (≈ 0.014 µM). For the same compound, the MIC90 against Candida albicans [24] was determined as 1 µg/mL (≈ 0.877 µM); with Pichia kudriavzevii [28], 0.5 µg/mL (≈ 0.438 µM); in the assay with Candida albicans [31], 0.25 µg/mL (≈ 0.219 µM); against Candida parapsilosis [33] it was 8 µg/mL (≈ 7.02 µM).
Turning to `CCCCCOc1ccc(-c2cc(-c3ccc(C(=O)N[C@H]4C[C@@H](O)[C@@H](O)NC(=O)[C@@H]5[C@@H](O)[C@@H](C)CN5C(=O)[C@H]([C@H](O)CC(N)=O)NC(=O)[C@H]([C@H](O)[C@@H](O)c5ccc(O)c(OS(=O)(=O)O)c5)NC(=O)[C@@H]5C[C@@H](O)CN5C(=O)[C@H]([C@@H](C)O)NC4=O)cc3)no2)cc1` [MICAFUNGIN] (X1-[Orn(4R-OH,5R-OH)]T[Hyp][hTyr(3S-OH,4S-OH,3'-OSO3H)][Gln(3R-OH)][Pro(3S-OH,4S-Me)]; lactam 1-C), the MIC with Candida albicans [1] is 0.25 µg/mL (≈ 0.197 µM); in the assay with Candida albicans [2], not above 0.032 µg/mL; in the assay on Candida albicans [3] it was 1 µg/mL (≈ 0.787 µM); against Pichia kudriavzevii [4] it was 1 µg/mL (≈ 0.787 µM); in the assay on Candida albicans [5] it was 0.25 µg/mL (≈ 0.197 µM); in the assay on Candida albicans [6], 0.25 µg/mL (≈ 0.197 µM). In addition, the minimal inhibitory concentration (MIC) in the assay with Candida albicans [7] is 1 µg/mL (≈ 0.787 µM); against Candida albicans [8] it was 1 µg/mL (≈ 0.787 µM); in the assay on Candida albicans [9], not above 0.032 µg/mL.

The MIC is the lowest concentration found to suppress growth. Broadly, the MIC50 is the lowest concentration that inhibits either 50% of growth or 50% of the strains tested, depending on the study. A word on the MIC90: it is an inhibitory concentration at the 90% level, which refers to growth in some studies and to a panel of isolates in others. Read a high MIC90 as lower susceptibility.

The record behind these values is ChEMBL document CHEMBL1240377, “Comparison of anidulafungin MICs determined by the clinical and laboratory standards institute broth microdilution method (M27-A3 document) and Etest for Candida species isolates” (2010).
